Experimental data as given in patent EP1626095A1, “Fluorescence-based kinetic determination of transglutaminase activity” (N-Zyme BioTec GmbH, priority 2004, dated 2006).
Where a SMILES comes first, the peptide text is derived from it. [ ]: non-standard residue; d: D form. The star is where a group is joined. X1 = O=[N+]([O-])c1ccc(NCCCCCN*)c([N+](=O)[O-])c1; 2Abz = Nc1ccccc1C(=O)O

How the values were obtained:
[1] = biological target: T1, gereinigte rekombinante humane Transglutaminase 2 (Homo sapiens, UniProt P21980); assay: Selectivity test: fluorescence-based kinetic transglutaminase activity measurement (release of quencher from substrate peptide), Ansatz 2; format: biochemical; settings: substrate peptide 50 µM; rhHis6TG2 0,25 µM; 6 % DMSO; Exc.: 310 nm Em.: 427 nm, 20 min
T1 construct: His6
T1 sequence (P21980 1-687): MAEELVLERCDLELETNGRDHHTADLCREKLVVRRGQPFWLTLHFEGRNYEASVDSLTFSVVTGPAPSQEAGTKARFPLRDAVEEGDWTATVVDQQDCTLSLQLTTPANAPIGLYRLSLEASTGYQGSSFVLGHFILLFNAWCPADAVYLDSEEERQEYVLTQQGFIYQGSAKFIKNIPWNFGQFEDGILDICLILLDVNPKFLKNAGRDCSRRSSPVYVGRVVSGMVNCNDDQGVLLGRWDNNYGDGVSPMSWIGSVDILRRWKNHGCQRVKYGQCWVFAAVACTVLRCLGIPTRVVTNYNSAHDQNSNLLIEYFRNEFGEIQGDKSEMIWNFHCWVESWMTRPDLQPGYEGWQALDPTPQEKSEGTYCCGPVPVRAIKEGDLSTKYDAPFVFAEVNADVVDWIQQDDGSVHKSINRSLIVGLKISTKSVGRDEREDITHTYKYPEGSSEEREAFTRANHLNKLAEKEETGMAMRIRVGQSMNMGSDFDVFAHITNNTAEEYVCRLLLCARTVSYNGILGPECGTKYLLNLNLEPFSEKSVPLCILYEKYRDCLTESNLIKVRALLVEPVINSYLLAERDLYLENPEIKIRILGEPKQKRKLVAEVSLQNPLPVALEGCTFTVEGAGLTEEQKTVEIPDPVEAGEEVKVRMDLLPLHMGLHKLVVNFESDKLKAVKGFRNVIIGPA
Source text: (§1) Selektivität der Messungen verschiedener Transglutaminasen
2. Ansatz: Abz-Asn-Glu(CAD-DNP)-Glu-Gln-Val-Ser-Pro-Leu-Thr-Leu-Leu-Lys (2) Transglutaminase: gereinigte rekombinante humane Transglutaminase 2

Faktor XIII = biological target: T2, Faktor XIII (Homo sapiens, UniProt P00488); assay: Selectivity test: fluorescence-based kinetic transglutaminase activity measurement (release of quencher from substrate peptide), Ansatz 1; format: biochemical; settings: substrate peptide 50 µM; Faktor XIII: 100 µl Citratplasma; 6 % DMSO; Exc.: 310 nm Em.: 427 nm, 20 min
T2 construct: 100 µl Citratplasma; from tissue; host or cells: citrate plasma
T2 sequence (P00488 39-732 limits assumed): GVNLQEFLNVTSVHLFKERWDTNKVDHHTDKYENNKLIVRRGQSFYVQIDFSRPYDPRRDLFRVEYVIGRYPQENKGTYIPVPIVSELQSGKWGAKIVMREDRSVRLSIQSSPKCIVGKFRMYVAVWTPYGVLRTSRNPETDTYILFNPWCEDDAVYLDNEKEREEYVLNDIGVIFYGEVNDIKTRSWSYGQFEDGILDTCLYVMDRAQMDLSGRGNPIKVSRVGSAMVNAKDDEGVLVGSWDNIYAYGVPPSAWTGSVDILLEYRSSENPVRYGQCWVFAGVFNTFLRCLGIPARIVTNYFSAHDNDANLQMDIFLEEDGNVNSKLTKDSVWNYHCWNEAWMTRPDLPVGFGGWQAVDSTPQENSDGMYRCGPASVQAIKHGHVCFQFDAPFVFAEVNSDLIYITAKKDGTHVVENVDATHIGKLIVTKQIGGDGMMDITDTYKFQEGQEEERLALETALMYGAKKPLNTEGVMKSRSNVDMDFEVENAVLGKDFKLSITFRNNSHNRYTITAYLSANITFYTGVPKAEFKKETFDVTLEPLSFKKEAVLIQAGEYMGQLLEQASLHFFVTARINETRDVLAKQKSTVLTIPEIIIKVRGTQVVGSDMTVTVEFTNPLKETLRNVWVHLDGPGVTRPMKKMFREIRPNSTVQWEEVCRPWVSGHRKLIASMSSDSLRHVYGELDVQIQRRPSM
Source text: as §1
1. Ansatz: Substratpeptid: Abz-Ala-Pro-Glu(CAD-DNP)-Gln-Glu-Ala (3), Transglutaminase: Faktor XIII

Compound | Ergebnis (Anstieg der Fluoreszenz) [1] | Ergebnis (Anstieg der Fluoreszenz) (Faktor XIII)
2-Aminobenzoyl-L-asparaginyl-N^δ-[N-(2,4-dinitrophenyl)1-5-aminopentyl]-L-glutaminyl-L-glutamyl-L-glutaminyl-L-valinyl-L-serinyl-L-prolinyl-L-leucinyl-L-threoninyl-L-leucinyl-L-leucin-L-lysin [Verbindung 2] | kein Anstieg der Fluoreszenz | –
C[C@H](NC(=O)[C@H](CCC(=O)O)NC(=O)[C@H](CCC(N)=O)NC(=O)[C@H](CCC(=O)NCCCCCNc1ccc([N+](=O)[O-])cc1[N+](=O)[O-])NC(=O)[C@@H]1CCCN1C(=O)[C@H](C)NC(=O)c1ccccc1N)C(=O)O [Verbindung 3] (H-[2Abz]APE(X1)QEA-OH) | – | Ergebnis: kein Anstieg der Fluoreszenz
